In patent publication US4308249A, “Radiopharmaceutical complexes of N-(tri-substituted alkyl)-iminodiacetic acids” (priority 1979, dated 1981):

Legend:
[1] = Disposition of radioactivity in rabbit after i.v. chelate, Anger camera scintigraphy (Table 1); assay type: in vivo, New Zealand rabbit; parameters: key to Relative Distribution of Chelate: Vascular / Relative Distribution of Chelate: Liver / Relative Distribution of Chelate: Gallbladder / Relative Distribution of Chelate: Intestine: -: no statistically significant measured radioactivity; ±: relative amounts of measured radioactivity; +: relative amounts of measured radioactivity; ++: relative amounts of measured radioactivity; +++: the maximum measured radioactivity
Description: (§1) A volume of a solution of the chelate of technetium-99 m and N-(3-cyano-3,3-diphenylpropyl)-iminodiacetic acid prepared as in Examples 1 and 2 in the range of 0.1 to 1.0 milliliter and having a radioactivity of 1.2 millicuries and containing 0.5 to 5 milligrams of the chelate was administered intravenously to an anesthetized New Zealand rabbit weighing about 3 kilograms using a 1 milliliter tuberculin syringe connected to a #23 gauge indwelling cannula inserted into a marginal ear vein. The rabbit was positioned in a full ventral position for four hours during which time the disposition of the radioactivity in the rabbit in this position was monitored using a computer-augmented Anger camera.
(§2) At various times after administration of a solution of a chelate of this invention which are indicated in Tables 1-4, scintiscan photographs and video tape recordings were taken of the rabbit, female beagle and monkey using the Anger camera. This instrument was a Pho-Gamma LFOV Scintillation Camera System, Model 6413, fitted with a Model 3137 Vari-Back Camera, a Model 3122 Data-Store/Playback System and a Model 27851 Analog-Digital/Digital-Analog Converter (all Searle Radiographics, Inc.). This entire system was interfaced with a Xerox 530 computer (Xerox Corp., Minneapolis, Minn.) which was programmed to record net counts per unit of time and percents of total counts in individual organs and to plot organ radioactivity versus time and to separate the radioactivity of the gallbladder from the radioactivity of the liver. The camera was operated with a 140 keV high resolution Type II converging collimator using a 20 percent technetium-99 m window. Generally 400,000 counts were accumulated on each scintiscan using both video tape and self-developing film, with the animal in the full ventral position. The photographs represented a visualization of the anatomic relationships in the hepatobiliary system.
(§3) The video tape was processed by computer for quantification of the distribution of the technetium-99 m chelate radioactivity in the organs of the animals. Tables 1-4 contain semi-quantitative representations of the distribution of radioactivity in the organs of the test animals calculated from the scintiscans. In Tables 1-4, (-), (±), (+), (++) and (+++) indicate relative amounts of measured radioactivity ranging from (-) for no statistically significant measured radioactivity to (+++) for the maximum measured radioactivity.

[2] = Disposition of radioactivity in female beagle dog after i.v. chelate, Anger camera scintigraphy (Tables 2 and 3, FIG. 1); assay type: in vivo; parameters: key to Relative Distribution of Chelate: Vascular / Relative Distribution of Chelate: Liver / Relative Distribution of Chelate: Gallbladder: -: no statistically significant measured radioactivity; ±: relative amounts of measured radioactivity; +: relative amounts of measured radioactivity; ++: relative amounts of measured radioactivity; +++: the maximum measured radioactivity; conditions: for Relative Distribution of Chelate: Gallbladder / Relative Distribution of Chelate: Liver / Relative Distribution of Chelate: Vascular: i.v.
Description: (§4) This procedure used with the rabbit was repeated with additional anesthetized animals; a female beagle dog weighing 9.25 kilograms, and a female rhesus monkey weighing 7.9 kilograms. Again 0.1 to 1.0 milliliter of the solution containing 0.5 to 5 milligrams of the same chelate and prepared as in Examples 1 and 2 was administered in each case. One difference was that unlike the case of the rabbit, the chelate solution was injected intravenously in the saphenous vein of the dog or monkey. In separate tests with the female beagle, (1) a solution having 1.13 mCi of the chelate and (2) a solution having a 3.10 mCi of the chelate were administered, and the disposition of radioactivity in the dog was monitored for one hour and 3 hours, respectively. In addition, FIG. 1 represents results of the test involving administration of 3.10 mCi of radioactive chelate to the female beagle dog.
as §2, §3
The disappearance of the radioactive chelate from the liver and its appearance in the gallbladder of the female beagle as well as the presence of the radioactive chelate in the total hepatobiliary system of the female beagle was calculated from video tape measurements by the computer and are plotted as percentages of total radioactivity administered in the form of the radioactive chelate versus time after administration in FIG. 1. At about 120 minutes after administration, about 75 percent of the total radioactivity administered was concentrated in the gallbladder, and in excess of 90 percent of the total dose of the radioactive chelate was in the hepatobiliary system. Approximately 50 percent of the radioactive chelate in the total hepatobiliary system had passed from the liver into the gallbladder within about 45 minutes after administration.

[3] = Disposition of radioactivity in female rhesus monkey after i.v. chelate, Anger camera scintigraphy (Table 4); assay type: in vivo; parameters: key to Relative Distribution of Chelate: Vascular / Relative Distribution of Chelate: Liver / Relative Distribution of Chelate: Gallbladder / Relative Distribution of Chelate: Intestine: -: no statistically significant measured radioactivity; ±: relative amounts of measured radioactivity; +: relative amounts of measured radioactivity; ++: relative amounts of measured radioactivity; +++: the maximum measured radioactivity
Description: as §4
(§5) In the test using the female rhesus monkey, 0.1 to 1.0 milliliter of a solution of the chelate of technetium-99 m and N-(3-cyano-3,3-diphenylpropyl)-iminodiacetic acid prepared as in Examples 1 and 2 and having a radioactivity of 1.23 mCi and containing 0.5 to 5 milligrams of the same chelate was administered and the disposition of the radioactive material in the monkey was monitored for one hour.
as §2, §3

[4] = Plasma clearance of radioactivity in female beagle, gamma spectrometer (FIG. 2); assay type: in vivo, female beagle dog
Description: In addition, periodically during the time of monitoring the distribution of radioactivity in the female beagle, blood samples were removed from the jugular vein of the animal and collected in vacuum tubes containing the disodium salt of ethylendiaminetetraacetic acid and the radioactivity of one milliliter samples of plasma was measured in a gamma spectrometer.
(§6) The gamma spectrometer employed was a Model 1185 Gamma Scintillation Spectrometer (Searle Analytic Inc., Des Plaines, Ill.). One milliliter samples of plasma or whole blood were analyzed for technetium-99 m, and samples were counted for 1 minute. FIGS. 2 and 3 show the radioactivity present in the plasma or whole blood, respectively, versus the time in hours after administration of the chelate to the animals. As determined by the computer, curves A and B were the best fitting curves passing through the plots of experimentally measured radioactivities. […] This illustrates that, after being distributed throughout the body the chelate of this invention is cleared relatively quickly from the […].

[5] = Whole blood clearance of radioactivity in male mongrel dog, gamma spectrometer (FIG. 3); assay type: in vivo
Description: The procedures for injecting and taking and analyzing blood samples from the female beagle were repeated with a male mongrel dog weighing 14.1 kilograms, and the results are presented in FIG. 3. In this case, a sample of 0.1 to 1.0 milliliter of a solution of the chelate of technetium-99 m and N-(3-cyano-3,3-diphenylpropyl)-iminodiacacetic acid prepared as in Examples 1 and 2 and having a radioactivity of 3.08 mCi and containing 0.5 to 5 milligrams of the chelate was administered. In this case, the radioactivity of one milliliter samples of whole blood was measured.
as §6

[6] = Urinary excretion of radioactivity in male mongrel dog; assay type: in vivo; conditions: through 2 hours after administration
[7] = Organ radioactivity and imaging in test animals (all species) after i.v. chelate; assay type: in vivo, rabbit, dog, monkey
Description: as §1, §4, §5, §2

[8] = i.v., 1.2 mCi, minutes after administration: 0.5, 3, 10, 20, 30, 60, 120, 180, 240
[9] = within 120 minutes after administration
[10] = female beagle, about 120 minutes after administration
[11] = female beagle, 1.13 mCi (Table 2), minutes after administration: 1, 10, 20, 30, 40, 50, 60
[12] = female beagle, 3.10 mCi (Table 3), minutes after administration: b87 10, b88 25, b89 35, b90 65, b91 102, b92 160
[13] = i.v., 1.23 mCi, minutes after administration: 1, 10, 20, 30, 40, 50, 60
[14] = test animals, first 3 hours after administration

For “chelate of technetium-99 m and N-(3-cyano-3,3-diphenylpropyl)-iminodiacetic acid”, the “route of clearance from the vascular system” value (“route of clearance” below) [1] was “solely by the liver and biliary excretion”, the “time to appearance of chelate in the gallbladder” value [1] was ≤ 3 min and the “Relative Distribution of Chelate: Gallbladder” value [1, 8] was “- and + and ++”. The “Relative Distribution of Chelate: Intestine” value [1, 8] was “- and + and ++ and +++”, the “Relative Distribution of Chelate: Liver” value [1, 8] was “+++ and ++ and + and ± and -” and the “Relative Distribution of Chelate: Vascular” value [1, 8] was “++ and -”. The “radioactivity of heart, aorta, kidneys and liver” value ([1]; within 0.5 minutes after administration) was “strongly radioactive”, the “amount in the gallbladder” value [1, 9] was “a relatively small amount” and the “amount of chelate in the intestine” value [1, 9] was “the bulk of the chelate”. For the same substance, the “radioactivity in the hepatic parenchyma” value [1, 9] was “no measurable radioactivity”, the “administered chelate appeared in the liver” value ([2]; dog, within 15 minutes after administration) was “more than 70%” and the “appearance of the chelate in the gallbladder compared with rabbit” value ([2]; female beagle) was “slower than in the case of the rabbit”. For the same substance, the “excretion of the chelate from the gallbladder into the intestine compared with rabbit or monkey” value ([2]; female beagle) was “slower in the female beagle than either in the rabbit or monkey”, the “route of clearance” value ([2]; female beagle) was “exclusively by the liver and biliary excretion” and the “total dose of the radioactive chelate in the hepatobiliary system” value [2, 10] was > 90%. For the same substance, the “total radioactivity administered concentrated in the gallbladder” value [2, 10] was “about 75%”, the “Relative Distribution of Chelate: Gallbladder” value [2, 11] was “- and + and ++ and +++” and the “Relative Distribution of Chelate: Liver” value [2, 11] was “++ and +++ and +”. For the same substance, the “Relative Distribution of Chelate: Vascular” value [2, 11] was “++ and -”, the “Relative Distribution of Chelate: Gallbladder” value [2, 12] was “- and + and ++ and +++” and the “Relative Distribution of Chelate: Liver” value [2, 12] was “+++ and ++ and + and ± and -”. The “Relative Distribution of Chelate: Vascular” value [2, 12] was “+ and -”, the “radioactive chelate in the total hepatobiliary system passed from the liver into the gallbladder” value ([2]; female beagle, within about 45 minutes after administration) was “Approximately 50%” and the “administered radioactivity accumulated in the hepatobiliary system” value ([2]; female dog, during the first 30 minutes) was “more than 85%”. The “appearance of the chelate in the gallbladder compared with rabbit” value [3] was “slower than in the case of the rabbit”, the “route of clearance” value [3] was “exclusively by the liver and biliary excretion” and the “Relative Distribution of Chelate: Gallbladder” value [3, 13] was “- and +”. For the same substance, the “Relative Distribution of Chelate: Intestine” value [3, 13] was “- and + and ++ and +++”, the “Relative Distribution of Chelate: Liver” value [3, 13] was “+++ and ++ and +” and the “Relative Distribution of Chelate: Vascular” value [3, 13] was “+ and -”. The clearance kinetics [4] was “bi-exponential decay”, the “half time of distributive phase of clearance” value [4] was 0.1 h and the “half time of elimination phase of clearance” value [4] was 1.5 h. The clearance kinetics [5] was “bi-exponential decay”, the “half time of distributive phase of clearance” value ([5]; 3.08 mCi) was 0.13 h and the “half time of elimination phase of clearance” value ([5]; 3.08 mCi) was 3.5 h. The “total radioactivity administered found in the urine” value [6] was “less than 0.5%”, the “distribution throughout the cardiovascular system” value ([7]; after intravenous administration) was “rapidly distributed throughout the cardiovascular system” and the “imaging of liver and gallbladder” value ([7]; all species, first 3 hours after administration) was “in all species the conformation of these organs was easily seen and distinguished”. For the same substance, the urinary excretion ([7]; in vivo) was “virtually no urinary excretion”, the “ratio of measured radioactivity in the gallbladder to measured background radioactivity” value [7, 14] was 150-200 to 1 and the “ratio of measured radioactivity of the liver to measured background radiation” value [7, 14] was 10-20 to 1.
